The experiment has as its target T1, Human Factor XIIa (hFXIIa) (Homo sapiens, UniProt P00748).
T1 construct: purchased Enzyme Research Laboratories
T1 sequence (P00748 373-615 limits assumed): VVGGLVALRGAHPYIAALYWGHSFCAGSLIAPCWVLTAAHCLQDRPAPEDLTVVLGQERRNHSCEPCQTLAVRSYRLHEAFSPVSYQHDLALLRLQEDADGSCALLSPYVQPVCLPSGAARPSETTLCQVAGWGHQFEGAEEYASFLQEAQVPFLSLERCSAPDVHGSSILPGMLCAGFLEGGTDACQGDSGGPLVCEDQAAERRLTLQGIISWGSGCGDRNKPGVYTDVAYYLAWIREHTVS
T1 sequence (P00748 20-372 partner limits assumed): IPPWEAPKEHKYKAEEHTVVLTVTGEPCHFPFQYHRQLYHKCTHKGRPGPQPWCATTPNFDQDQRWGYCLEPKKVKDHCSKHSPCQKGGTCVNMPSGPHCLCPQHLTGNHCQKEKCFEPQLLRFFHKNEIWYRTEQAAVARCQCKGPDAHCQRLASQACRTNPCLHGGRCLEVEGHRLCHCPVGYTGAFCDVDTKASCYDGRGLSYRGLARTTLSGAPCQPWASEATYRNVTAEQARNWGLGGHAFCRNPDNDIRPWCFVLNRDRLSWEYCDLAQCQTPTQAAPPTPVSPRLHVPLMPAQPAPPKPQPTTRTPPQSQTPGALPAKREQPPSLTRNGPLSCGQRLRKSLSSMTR
The experiment is described as follows: Determination of Human Factor XIIa (hFXIIa) inhibition, fluorogenic substrate IC50 assay. Type of experiment: biochemical. As to conditions: fluorogenic substrate H-DPro-Phe-Arg-AFC at Km, 25° C., read-out: Human FXIIa IC50. On the procedure: Determination of Human Factor XIIa (hFXIIa) inhibition
The Km for the cleavage of the substrate by hFXIIa was determined by standard transformation of the Michaelis-Menten equation, with subsequent inhibition assays performed at substrate Km concentration.
`O=C(NCC1CC1)c1nn(-c2cccc(Cl)c2)c2c1CCN(c1ccc3c(c1)C(=O)N(CC1CCCO1)CC3)C2=O` (stereo not drawn) [Example 1292, 1-(3-chlorophenyl)-N-(cyclopropylmethyl)-7-oxo-6-(1-oxo-2-((tetrahydrofuran-2-yl)methyl)-1,2,3,4-tetrahydroisoquinolin-7-yl)-4,5,6,7-tetrahydro-1H-pyrazolo[3,4-c]pyridine-3-carboxamide]: the IC50 (as a rule, the point on the concentration scale where inhibition reaches its midpoint) lay within 300 to 1000 nM.

For the molecule `CCN1CCc2ccc(N3CCc4c(C(=O)NCc5cc(C)n[nH]5)nn(-c5cccc(Cl)c5)c4C3=O)cc2C1` [Example 1086, 1-(3-chlorophenyl)-6-(2-ethyl-1,2,3,4-tetrahydroisoquinolin-7-yl)-N-((3-methyl-1H-pyrazol-5-yl)methyl)-7-oxo-4,5,6,7-tetrahydro-1H-pyrazolo[3,4-c]pyridine-3-carboxamide], the IC50 is 100 to 300 nM. Next, `COC(=O)CN1CCc2ccc(N3CCc4c(C(=O)NCC5CC5)nn(-c5cccc(Cl)c5)c4C3=O)cc2C1` [Example 1094, methyl 2-(7-(1-(3-chlorophenyl)-3-((cyclopropylmethyl)carbamoyl)-7-oxo-1,4,5,7-tetrahydro-6H-pyrazolo[3,4-c]pyridin-6-yl)-3,4-dihydroisoquinolin-2(1H)-yl)acetate]: 1000 to 3000 nM; `CCNC(=O)c1nn(-c2cnc(N)c(Cl)c2)c2c1CCN(c1ccc3c(c1)C(=O)N(C)CC3)C2=O` [Example 2031, 1-(6-amino-5-chloropyridin-3-yl)-N-ethyl-6-(2-methyl-1-oxo-1,2,3,4-tetrahydroisoquinolin-7-yl)-7-oxo-4,5,6,7-tetrahydro-1H-pyrazolo[3,4-c]pyridine-3-carboxamide]: more than 4000 nM. The same measure for `C[C@@H](O)CN1CCc2ccc(N3CCc4c(C(=O)NCC5CC5)nn(-c5cccc(Cl)c5)c4C3=O)cc2C1` [Example 1101, (R)-1-(3-chlorophenyl)-N-(cyclopropylmethyl)-6-(2-(2-hydroxypropyl)-1,2,3,4-tetrahydroisoquinolin-7-yl)-7-oxo-4,5,6,7-tetrahydro-1H-pyrazolo[3,4-c]pyridine-3-carboxamide]: 300 to 1000 nM; for `CN1CCc2ccc(N3CCc4c(C(=O)NCC56CC(CO)(CCO5)C6)nn(-c5cccc(Cl)c5)c4C3=O)cc2C1=O` [Example 1283, 1-(3-chlorophenyl)-N-((5-(hydroxymethyl)-2-oxabicyclo[3.1.1]heptan-1-yl)methyl)-6-(2-methyl-1-oxo-1,2,3,4-tetrahydroisoquinolin-7-yl)-7-oxo-4,5,6,7-tetrahydro-1H-pyrazolo[3,4-c]pyridine-3-carboxamide]: 300 to 1000 nM. For the molecule `CC(=O)N(C)c1cccc(N2CCc3c(C(=O)NCC4CC4)nn(-c4cccc(Cl)c4)c3C2=O)c1` [Example 1269, 1-(3-chlorophenyl)-N-(cyclopropylmethyl)-6-(3-(N-methylacetamido)phenyl)-7-oxo-4,5,6,7-tetrahydro-1H-pyrazolo[3,4-c]pyridine-3-carboxamide], the half-inhibitory concentration (IC50) was 10000 to 40000 nM. Next, `O=C(NCC1CC1)c1nn(-c2cccc(Cl)c2)c2c1CCN(c1ccc3c(c1)CN(C1CCCC1O)CC3)C2=O` (stereo not drawn) [Example 1119, 1-(3-chlorophenyl)-N-(cyclopropylmethyl)-6-(2-(2-hydroxycyclopentyl)-1,2,3,4-tetrahydroisoquinolin-7-yl)-7-oxo-4,5,6,7-tetrahydro-1H-pyrazolo[3,4-c]pyridine-3-carboxamide]: 300 to 1000 nM. Next, `CCNC(=O)c1nn(-c2cccc(Cl)c2)c2c1CCN(c1ccc3c(c1)C(=O)N(C)CC3)C2=O` [Example 1297, 1-(3-chlorophenyl)-N-ethyl-6-(2-methyl-1-oxo-1,2,3,4-tetrahydroisoquinolin-7-yl)-7-oxo-4,5,6,7-tetrahydro-1H-pyrazolo[3,4-c]pyridine-3-carboxamide]: 300 to 1000 nM. As to `NC(=O)CN1CCc2ccc(N3CCc4c(C(=O)NCC5CC5)nn(-c5cccc(Cl)c5)c4C3=O)cc2C1` [Example 1033, 6-(2-(2-amino-2-oxoethyl)-1,2,3,4-tetrahydroisoquinolin-7-yl)-1-(3-chlorophenyl)-N-(cyclopropylmethyl)-7-oxo-4,5,6,7-tetrahydro-1H-pyrazolo[3,4-c]pyridine-3-carboxamide], the IC50 lay within 1000 to 3000 nM. Next, `O=C(NCc1ccoc1)c1nn(-c2cccc(Cl)c2)c2c1CCN(c1ccc3c(c1)CN(CCO)CC3)C2=O` [Example 1105, 1-(3-chlorophenyl)-N-(furan-3-ylmethyl)-6-(2-(2-hydroxyethyl)-1,2,3,4-tetrahydroisoquinolin-7-yl)-7-oxo-4,5,6,7-tetrahydro-1H-pyrazolo[3,4-c]pyridine-3-carboxamide]: 100 to 300 nM; `CC1CCN(Cc2cccc(N3CCc4c(C(=O)NCc5ccccc5)nn(-c5cccc(Cl)c5)c4C3=O)c2)C1` (stereo not drawn) [Example 1038, N-benzyl-1-(3-chlorophenyl)-6-(3-((3-methylpyrrolidin-1-yl)methyl)phenyl)-7-oxo-4,5,6,7-tetrahydro-1H-pyrazolo[3,4-c]pyridine-3-carboxamide]: 300 to 1000 nM.

In the case of `C[C@H](O)CN1CCc2ccc(N3CCc4c(C(=O)NCC5CC5)nn(-c5cccc(Cl)c5)c4C3=O)cc2C1` [Example 1070, (S)-1-(3-chlorophenyl)-N-(cyclopropylmethyl)-6-(2-(2-hydroxypropyl)-1,2,3,4-tetrahydroisoquinolin-7-yl)-7-oxo-4,5,6,7-tetrahydro-1H-pyrazolo[3,4-c]pyridine-3-carboxamide], the IC50 fell in the range of 100 to 300 nM.

On to `Cc1cc(CNC(=O)c2nn(-c3cccc(Cl)c3)c3c2CCN(c2ccc4c(c2)CN(CCO)CC4)C3=O)nn1C` [Example 1166, 1-(3-chlorophenyl)-N-((1,5-dimethyl-1H-pyrazol-3-yl)methyl)-6-(2-(2-hydroxyethyl)-1,2,3,4-tetrahydroisoquinolin-7-yl)-7-oxo-4,5,6,7-tetrahydro-1H-pyrazolo[3,4-c]pyridine-3-carboxamide], for which the 50% inhibitory concentration (IC50) is 10 to 100 nM. The same measure for `CN1CCc2ccc(N3CCc4c(C(=O)N5CCOCC5)nn(-c5cccc(Cl)c5)c4C3=O)cc2C1=O` [Example 1272, 7-(1-(3-chlorophenyl)-3-(morpholine-4-carbonyl)-7-oxo-1,4,5,7-tetrahydro-6H-pyrazolo[3,4-c]pyridin-6-yl)-2-methyl-3,4-dihydroisoquinolin-1(2H)-one]: 3000 to 10000 nM. Turning to `O=C1CC[C@H](CN2CCc3ccc(N4CCc5c(C(=O)NCC6CC6)nn(-c6cccc(Cl)c6)c5C4=O)cc3C2)N1` [Example 1120, (R)-1-(3-chlorophenyl)-N-(cyclopropylmethyl)-7-oxo-6-(2-((5-oxopyrrolidin-2-yl)methyl)-1,2,3,4-tetrahydroisoquinolin-7-yl)-4,5,6,7-tetrahydro-1H-pyrazolo[3,4-c]pyridine-3-carboxamide], the IC50 is 300 to 1000 nM. The same measure for `Cc1cc(CNC(=O)c2nn(-c3cccc(Cl)c3)c3c2CCN(c2cccc(CN4CCCCC4)c2)C3=O)[nH]n1` [Example 1168, 1-(3-chlorophenyl)-N-((3-methyl-1H-pyrazol-5-yl)methyl)-7-oxo-6-(3-(piperidin-1-ylmethyl)phenyl)-4,5,6,7-tetrahydro-1H-pyrazolo[3,4-c]pyridine-3-carboxamide]: 10 to 100 nM; for `CN1C(=O)C(C)(C)c2ccc(N3CCc4c(C(=O)NCC5CC5)nn(-c5cccc(Cl)c5)c4C3=O)cc21` [Example 1277, 1-(3-chlorophenyl)-N-(cyclopropylmethyl)-7-oxo-6-(1,3,3-trimethyl-2-oxoindolin-6-yl)-4,5,6,7-tetrahydro-1H-pyrazolo[3,4-c]pyridine-3-carboxamide]: 10000 to 40000 nM. Consider `O=C(NCC1CC1)c1nn(-c2cccc(Cl)c2)c2c1CCN(c1ccc3c(c1)CN(CCF)CC3)C2=O` [Example 1175, 1-(3-chlorophenyl)-N-(cyclopropylmethyl)-6-(2-(2-fluoroethyl)-1,2,3,4-tetrahydroisoquinolin-7-yl)-7-oxo-4,5,6,7-tetrahydro-1H-pyrazolo[3,4-c]pyridine-3-carboxamide], for which the IC50 lay in the range of 100 to 300 nM. The same measure for `Cc1cc(CNC(=O)c2nn(-c3cccc(Cl)c3)c3c2CCN(c2ccc4c(c2)C(=O)N(C2COC2)CC4)C3=O)nn1C` [Example 1290, 1-(3-chlorophenyl)-N-((1,5-dimethyl-1H-pyrazol-3-yl)methyl)-6-(2-(oxetan-3-yl)-1-oxo-1,2,3,4-tetrahydroisoquinolin-7-yl)-7-oxo-4,5,6,7-tetrahydro-1H-pyrazolo[3,4-c]pyridine-3-carboxamide]: 100 to 300 nM; for `CN1CCc2ccc(N3CCc4c(C(=O)NCC56CC(CO)(CCO5)C6)nn(-c5cccc(Cl)c5)c4C3=O)cc2C1` [Example 1046, 1-(3-chlorophenyl)-N-((5-(hydroxymethyl)-2-oxabicyclo[3.1.1]heptan-1-yl)methyl)-6-(2-methyl-1,2,3,4-tetrahydroisoquinolin-7-yl)-7-oxo-4,5,6,7-tetrahydro-1H-pyrazolo[3,4-c]pyridine-3-carboxamide]: 300 to 1000 nM.

For the origin of these results see US20260132132A1, “3A,4,5,6-TETRAHYDRO-1 H-PYRAZOLO[3,4-C]PYRIDIN-7(7AH)-ONE DERIVATIVES AS FACTOR XIIA INHIBITORS” (KALVISTA PHARMACEUTICALS LIMITED, priority 2022, published 2026).
